Measurements from PubChem BioAssay AID1259407 (Chemical Carcinogenesis Research Information System (CCRIS), 2018).
Calls of active or inactive are those of the source. How the calls were made is not given here.

Tested on: CCRIS mutagenicity, Ames/micronucleus/aberration tests
Assay: CCRIS mutagenicity studies
[1] = Test System: AMES SALMONELLA TYPHIMURIUM, Strain/Indicator: TA97, Metabolic Activation: NONE, Method: PREINCUBATION
[2] = Test System: AMES SALMONELLA TYPHIMURIUM, Strain/Indicator: TA98, Metabolic Activation: HAMSTER, LIVER, S-9, AROCLOR 1254 (10%), Method: PREINCUBATION
[3] = Test System: AMES SALMONELLA TYPHIMURIUM, Strain/Indicator: TA98, Metabolic Activation: NONE, Method: PREINCUBATION
[4] = Test System: AMES SALMONELLA TYPHIMURIUM, Strain/Indicator: TA98, Metabolic Activation: RAT, LIVER, S-9, AROCLOR 1254 (10%), Method: PREINCUBATION
[5] = Test System: AMES SALMONELLA TYPHIMURIUM, Strain/Indicator: TA100, Metabolic Activation: HAMSTER, LIVER, S-9, AROCLOR 1254 (10%), Method: PREINCUBATION
[6] = Test System: AMES SALMONELLA TYPHIMURIUM, Strain/Indicator: TA100, Metabolic Activation: NONE, Method: PREINCUBATION
[7] = Test System: AMES SALMONELLA TYPHIMURIUM, Strain/Indicator: TA100, Metabolic Activation: RAT, LIVER, S-9, AROCLOR 1254 (10%), Method: PREINCUBATION
[8] = Test System: AMES SALMONELLA TYPHIMURIUM, Strain/Indicator: TA1535, Metabolic Activation: HAMSTER, LIVER, S-9, AROCLOR 1254 (10%), Method: PREINCUBATION
[9] = Test System: AMES SALMONELLA TYPHIMURIUM, Strain/Indicator: TA1535, Metabolic Activation: NONE, Method: PREINCUBATION
[10] = Test System: AMES SALMONELLA TYPHIMURIUM, Strain/Indicator: TA1535, Metabolic Activation: RAT, LIVER, S-9, AROCLOR 1254 (10%), Method: PREINCUBATION
[11] = Test System: AMES SALMONELLA TYPHIMURIUM, Strain/Indicator: TA1537, Metabolic Activation: NONE, Method: PREINCUBATION
[12] = End Point: IN VITRO CHROMOSOMAL ABERRATIONS, Test System: CHL CELLS, Metabolic Activation: RAT, LIVER, S-9, SODIUM PHENOBARBITAL AND 5,6-BENZOFLAVONE

Oc1ccc2ccccc2c1N=Nc1ccccc1
mutagenic call (End Point: IN VITRO CHROMOSOMAL ABERRATIONS, Test System: CHO CELLS, Metabolic Activation: NONE): inactive; negative
mutagenic call (End Point: IN VITRO CHROMOSOMAL ABERRATIONS, Test System: CHO CELLS, Metabolic Activation: RAT, LIVER, S-9, AROCLOR 1254): inactive; negative
mutagenic call (Test System: AMES SALMONELLA TYPHIMURIUM, Strain/Indicator: TA97, Metabolic Activation: HAMSTER, LIVER, S-9, AROCLOR 1254 (10%), Method: PREINCUBATION): inactive; negative
mutagenic call [1]: inactive; negative
mutagenic call (Test System: AMES SALMONELLA TYPHIMURIUM, Strain/Indicator: TA97, Metabolic Activation: RAT, LIVER, S-9, AROCLOR 1254 (10%), Method: PREINCUBATION): active; positive
mutagenic call [2]: inactive; negative
mutagenic call [3]: inactive; negative
mutagenic call (Test System: AMES SALMONELLA TYPHIMURIUM, Strain/Indicator: TA98, Metabolic Activation: RAT, BLADDER, S-9, PCB, Method: FLUCTUATION TEST): inactive; negative
mutagenic call [4]: active; positive
mutagenic call [5]: inactive; negative
mutagenic call [6]: inactive; negative
mutagenic call (Test System: AMES SALMONELLA TYPHIMURIUM, Strain/Indicator: TA100, Metabolic Activation: RAT, BLADDER, S-9, PCB, Method: FLUCTUATION TEST): inactive; negative
mutagenic call [7]: inactive; negative
mutagenic call [8]: inactive; negative
mutagenic call [9]: inactive; negative
mutagenic call [10]: inactive; negative
mutagenic call (Test System: AMES SALMONELLA TYPHIMURIUM, Strain/Indicator: TA1538, Metabolic Activation: HAMSTER, LIVER, S-9, AROCLOR 1254, Method: STANDARD PLATE): active; positive

COc1ccc2c(c1)nc(N)n2C
mutagenic call (Test System: AMES SALMONELLA TYPHIMURIUM, Strain/Indicator: TA98, Metabolic Activation: RAT, LIVER, S-9, AROCLOR 1254, Method: PREINCUBATION): active; positive
mutagenic call (Test System: AMES SALMONELLA TYPHIMURIUM, Strain/Indicator: TA100, Metabolic Activation: RAT, LIVER, S-9, AROCLOR 1254, Method: PREINCUBATION): active; positive

OCCOCCOCCO
mutagenic call [3]: inactive; negative
mutagenic call (Test System: AMES SALMONELLA TYPHIMURIUM, Strain/Indicator: TA98, Metabolic Activation: RAT LIVER S-9, PHENOBARBITAL AND BETA-NAPHTHOFLAVONE, Method: PREINCUBATION): inactive; negative
mutagenic call [6]: inactive; negative
mutagenic call (Test System: AMES SALMONELLA TYPHIMURIUM, Strain/Indicator: TA100, Metabolic Activation: RAT LIVER S-9, PHENOBARBITAL AND BETA-NAPHTHOFLAVONE, Method: PREINCUBATION): inactive; negative
mutagenic call [9]: inactive; negative
mutagenic call (Test System: AMES SALMONELLA TYPHIMURIUM, Strain/Indicator: TA1535, Metabolic Activation: RAT LIVER S-9, PHENOBARBITAL AND BETA-NAPHTHOFLAVONE, Method: PREINCUBATION): inactive; negative
mutagenic call [11]: inactive; negative
mutagenic call (Test System: AMES SALMONELLA TYPHIMURIUM, Strain/Indicator: TA1537, Metabolic Activation: RAT LIVER S-9, PHENOBARBITAL AND BETA-NAPHTHOFLAVONE, Method: PREINCUBATION): inactive; negative
mutagenic call (Test System: AMES SALMONELLA TYPHIMURIUM, Strain/Indicator: TA1538, Metabolic Activation: NONE, Method: PREINCUBATION): inactive; negative
mutagenic call (Test System: AMES SALMONELLA TYPHIMURIUM, Strain/Indicator: TA1538, Metabolic Activation: RAT LIVER S-9, PHENOBARBITAL AND BETA-NAPHTHOFLAVONE, Method: PREINCUBATION): inactive; negative
mutagenic call (Test System: E.COLI, Strain/Indicator: WP2UVRA, Metabolic Activation: NONE, Method: PREINCUBATION): inactive; negative
mutagenic call (Test System: E.COLI, Strain/Indicator: WP2UVRA, Metabolic Activation: RAT LIVER S-9, PHENOBARBITAL AND BETA-NAPHTHOFLAVONE, Method: PREINCUBATION): inactive; negative

CNC(=O)c1ccccc1
mutagenic call (Test System: AMES SALMONELLA TYPHIMURIUM, Strain/Indicator: TA97, Metabolic Activation: HAMSTER, LIVER, S-9, AROCLOR 1254 (10 OR 30%), Method: PREINCUBATION): inactive; negative
mutagenic call [1]: inactive; negative
mutagenic call (Test System: AMES SALMONELLA TYPHIMURIUM, Strain/Indicator: TA97, Metabolic Activation: RAT, LIVER, S-9, AROCLOR 1254 (10 OR 30%), Method: PREINCUBATION): inactive; negative
mutagenic call (Test System: AMES SALMONELLA TYPHIMURIUM, Strain/Indicator: TA98, Metabolic Activation: HAMSTER, LIVER, S-9, AROCLOR 1254 (10 OR 30%), Method: PREINCUBATION): inactive; negative
mutagenic call [3]: inactive; negative
mutagenic call (Test System: AMES SALMONELLA TYPHIMURIUM, Strain/Indicator: TA98, Metabolic Activation: RAT, LIVER, S-9, AROCLOR 1254 (10 OR 30%), Method: PREINCUBATION): inactive; negative
mutagenic call (Test System: AMES SALMONELLA TYPHIMURIUM, Strain/Indicator: TA100, Metabolic Activation: HAMSTER, LIVER, S-9, AROCLOR 1254 (10 OR 30%), Method: PREINCUBATION): inactive; negative
mutagenic call [6]: inactive; negative
mutagenic call (Test System: AMES SALMONELLA TYPHIMURIUM, Strain/Indicator: TA100, Metabolic Activation: RAT, LIVER, S-9, AROCLOR 1254 (10 OR 30%), Method: PREINCUBATION): inactive; negative
mutagenic call (Test System: AMES SALMONELLA TYPHIMURIUM, Strain/Indicator: TA1535, Metabolic Activation: HAMSTER, LIVER, S-9, AROCLOR 1254 (10 OR 30%), Method: PREINCUBATION): inactive; negative
mutagenic call [9]: inactive; negative
mutagenic call (Test System: AMES SALMONELLA TYPHIMURIUM, Strain/Indicator: TA1535, Metabolic Activation: RAT, LIVER, S-9, AROCLOR 1254 (10 OR 30%), Method: PREINCUBATION): inactive; negative

c1ccc2c(OC[C@@H]3CO3)cccc2c1
mutagenic call (Test System: AMES SALMONELLA TYPHIMURIUM, Strain/Indicator: TA100, Metabolic Activation: NONE, Method: STANDARD PLATE): active; positive

CCCNCCC
mutagenic call [2]: inactive; negative
mutagenic call [3]: inactive; negative
mutagenic call [4]: inactive; negative
mutagenic call [5]: inactive; negative
mutagenic call [6]: inactive; negative
mutagenic call [7]: inactive; negative
mutagenic call [8]: inactive; negative
mutagenic call [9]: inactive; negative
mutagenic call [10]: inactive; negative
mutagenic call (Test System: AMES SALMONELLA TYPHIMURIUM, Strain/Indicator: TA1537, Metabolic Activation: HAMSTER, LIVER, S-9, AROCLOR 1254 (10%), Method: PREINCUBATION): inactive; negative
mutagenic call [11]: inactive; negative
mutagenic call (Test System: AMES SALMONELLA TYPHIMURIUM, Strain/Indicator: TA1537, Metabolic Activation: RAT, LIVER, S-9, AROCLOR 1254 (10%), Method: PREINCUBATION): inactive; negative

CO[C@@H]1[C@H](C)O[C@@H](O[C@@H]2C[C@H](Oc3cc(O)c4c(O)c5c(cc4c3)C[C@@H]([C@H](OC)C(=O)[C@@H](O)[C@@H](C)O)[C@H](O[C@@H]3C[C@H](OC4C[C@H](O)[C@@H](O)[C@H](C)O4)[C@@H](O)[C@H](C)O3)C5=O)O[C@H](C)[C@@H]2O)C[C@@H]1O (some centres not stated)
mutagenic call (Test System: CHINESE HAMSTER OVARY, Strain/Indicator: CHO (HGPRT)/6-THIOGUANINE, Metabolic Activation: NONE, Method: PREINCUBATION): active; positive

CC(C)(Br)C(=O)O
mutagenic call (End Point: IN VITRO CHROMOSOMAL ABERRATIONS, Test System: CHL CELLS, Metabolic Activation: NONE): active; positive (structural changes)
mutagenic call [12]: active; positive (structural changes)

Nc1cc(N)cc(C(=O)O)c1
mutagenic call [12]: inactive; negative
mutagenic call (End Point: IN VITRO MICRONUCLEUS, Test System: CHL/IU CELLS, Metabolic Activation: RAT, LIVER, S-9, PHENOBARBITAL AND 5,6-BENZOFLAVONE): inactive; negative
mutagenic call (Test System: UDS RODENT HEPATOCYTES, Strain/Indicator: THY INCORP (NON-S-PHASE), Metabolic Activation: NONE, Method: AUTORADIOGRAPHY): active; positive
